Experimental data: article PMC7307906, “Macrocyclic Modalities Combining Peptide Epitopes and Natural Product Fragments” (Journal of the American Chemical Society, 2020)
Where a SMILES comes first, the peptide text is derived from it.

How the values were obtained:
[1] = biological target: T1, human MC5R (Homo sapiens, UniProt P33032); experiment: Melanocortin receptor radioligand binding (SPA, [125I]-NDP-α-MSH displacement), MC5R; conditions: competitive binding, [125I]-NDP-α-MSH; mean (± SEM) of at least three independent experiments; read-out: IC50 hMC5R binding
T1 construct: expressed in transfected cells; host or cells: HEK293-6E suspension cells, transient expression; membranes
T1 sequence (P33032 whole entry): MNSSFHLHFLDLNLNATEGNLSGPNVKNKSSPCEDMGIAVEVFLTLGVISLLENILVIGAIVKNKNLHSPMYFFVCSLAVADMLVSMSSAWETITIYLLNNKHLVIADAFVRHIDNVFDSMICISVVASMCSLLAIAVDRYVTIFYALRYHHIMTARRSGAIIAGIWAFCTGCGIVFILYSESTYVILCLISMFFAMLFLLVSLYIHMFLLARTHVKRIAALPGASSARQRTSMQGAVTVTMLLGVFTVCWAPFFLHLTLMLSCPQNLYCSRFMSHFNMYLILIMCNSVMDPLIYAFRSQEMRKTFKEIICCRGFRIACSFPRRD

[2] = biological target: T2, human MC4R (Homo sapiens, UniProt P32245); experiment: Melanocortin receptor radioligand binding (SPA, [125I]-NDP-α-MSH displacement), MC4R; conditions: competitive binding, mean (± SEM) of at least three independent experiments, read-out: IC50 hMC4R binding
T2 construct: expressed in transfected cells
T2 sequence (P32245 whole entry): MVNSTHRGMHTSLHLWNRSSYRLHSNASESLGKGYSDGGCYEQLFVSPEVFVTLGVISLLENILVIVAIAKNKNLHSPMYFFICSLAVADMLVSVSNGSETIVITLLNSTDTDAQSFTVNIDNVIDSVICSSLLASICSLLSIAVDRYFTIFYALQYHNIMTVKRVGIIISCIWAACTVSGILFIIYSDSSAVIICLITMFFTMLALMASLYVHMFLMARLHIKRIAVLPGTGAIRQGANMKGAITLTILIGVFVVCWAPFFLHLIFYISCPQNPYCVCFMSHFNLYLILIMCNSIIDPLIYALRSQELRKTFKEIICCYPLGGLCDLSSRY

[3] = biological target: T3, human MC3R (Homo sapiens, UniProt P41968); experiment: cAMP assay (LANCE) in T-Rex-293 cells expressing MC3R; type: cell-based; conditions: cAMP assay; mean (± SEM) of at least three independent experiments; read-out: EC50 hMC3R cAMP
T3 construct: expressed in transfected cells
T3 sequence (P41968 whole entry): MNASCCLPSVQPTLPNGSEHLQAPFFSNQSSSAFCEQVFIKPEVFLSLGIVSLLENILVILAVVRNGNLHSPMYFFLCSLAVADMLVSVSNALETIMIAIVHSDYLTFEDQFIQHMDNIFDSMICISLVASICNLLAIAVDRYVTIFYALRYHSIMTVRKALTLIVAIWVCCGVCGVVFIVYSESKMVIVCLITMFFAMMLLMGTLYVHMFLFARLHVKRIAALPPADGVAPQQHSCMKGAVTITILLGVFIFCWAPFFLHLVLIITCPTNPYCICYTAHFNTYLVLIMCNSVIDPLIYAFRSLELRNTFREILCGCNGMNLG

[4] = biological target: T4, human MC1R (Homo sapiens, UniProt Q01726); experiment: Melanocortin receptor radioligand binding (SPA, [125I]-NDP-α-MSH displacement), MC1R; conditions: competitive binding, mean (± SEM) of at least three independent experiments, read-out: IC50 hMC1R binding
T4 construct: expressed in transfected cells
T4 sequence (Q01726 whole entry): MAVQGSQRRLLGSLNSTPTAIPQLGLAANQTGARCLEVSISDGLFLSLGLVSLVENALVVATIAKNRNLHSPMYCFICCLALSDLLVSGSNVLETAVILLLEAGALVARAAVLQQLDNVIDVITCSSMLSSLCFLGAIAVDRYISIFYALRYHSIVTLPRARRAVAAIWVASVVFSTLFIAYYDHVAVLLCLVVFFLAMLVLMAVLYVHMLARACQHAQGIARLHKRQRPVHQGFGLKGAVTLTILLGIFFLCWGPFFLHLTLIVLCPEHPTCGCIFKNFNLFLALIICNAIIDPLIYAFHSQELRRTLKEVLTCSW

[5] = system: hMC1−5R; experiment: Melanocortin receptor radioligand binding, result stated for all receptors together; set-up: species or system human; conditions: human MC receptors, radioligand binding
Text: Example concentration response curves for selected PepNats in MC1R, MC3R, MC4R, MC5R radioligand binding assays and MC1R, MC3R, MC4R cAMP assays. Responses were normalized to reference agonist NDP -α-MSH and presented as % effect of control, with full competition in binding defined as -100% and full agonism in cAMP assays defined as […]
binding assay. Threshold to define a compound as active was set to -30% in binding assays and 20% in cAMP assays respectively. Data are from at least three independent experiments and error bars represent ± Standard Error of the […]
% s p e c ific b in d in g o f
(1 picture or pasted object on this page, not shown here) […]
expression, MC1R and MC4R transfected cells were treated with 0.1 ng /mL and MC3R transfected cells with 10 ng/mL doxycyclin, for 24 h before assay.
Melanocortin receptor radioligand binding and cAMP assays.
Binding and cAMP assays were performed as described by Durek et al.7 “A 384-well format scintillation proximity assay (SPA) was used to identify compounds that show competitive binding to the human Melanocortin receptor 1,3,4 or 5 ligand binding domain (LBD). […] The inhibition of the scintillation signal by displacement of [ 125I]- NDP-α-MSH by test compounds were detected by a 1450 MicroBeta Trilux scintillation counter […]
Plates were incubated for 16-23 h in the dark at room temperature before reading on a 1450 […]
Measurements of cAMP production were performed using LANCE® cAMP kits (PerkinElmer) in a total assay volume of 12 µl/well. […] The reaction was stopped with detection buffer containing 10 µM Biotin-cAMP and 15 µM LANCE Eu-W8044 labelled streptavidin (PerkinElmer LANCE cAMP kit). cAMP production was detected by homogenous time resolved fluorescence (HTRF) (λex = 340 nm, λem = 665 and 615 nm) using a Pherastar (BMG Labtech).
PepNats, literature compounds and references were tested in ten-point concentration response (½ log serial dilution) with 100, 10 or 1 µM as final start concentrations. Raw data output was analyzed in Screener software (Genedata AG) and pEC50 and pIC50 values calculated using a four-

[6] = biological target: T2, human MC4R; experiment: cAMP assay (LANCE) in T-Rex-293 cells expressing MC4R; type: cell-based; conditions: cAMP assay; mean (± SEM) of at least three independent experiments; read-out: EC50 hMC4R cAMP
[7] = biological target: T3, human MC3R; experiment: Melanocortin receptor radioligand binding (SPA, [125I]-NDP-α-MSH displacement), MC3R; conditions: competitive binding, mean (± SEM) of at least three independent experiments, read-out: IC50 hMC3R binding
[8] = biological target: T4, human MC1R; experiment: cAMP assay (LANCE) in T-Rex-293 cells expressing MC1R; type: cell-based

IC50 [1]: 1.6 ± 0.3 µM
IC50 [2]: 0.18 ± 0.01 µM
EC50 [3]: > 100 µM
IC50 [4]: 10 ± 1 µM
binding to the MC receptors (in words) [5]: micromolar affinity
EC50 [6]: > 100 µM
IC50 [7]: 1.6 ± 0.1 µM
Emax ([8]; T-REx-293, read-out: % Effect hMC1R cAMP): 44%
agonistic activity at MC1R (in words) ([8]; cAMP assay, hMC1R): weak partial agonistic activity
EC50 ([8]; cAMP assay, mean (± SEM) of at least three independent experiments, read-out: EC50 hMC1R cAMP): 1.2 ± 0.4 µM
SMILES: C[C@@H]1NC(=O)[C@H](CC(N)=O)NC(=O)[C@H](Cc2ccccc2)NC(=O)[C@H](Cc2ccccc2)NC(=O)[C@H](CCCNC(=N)N)NC(=O)[C@@H](NC(=O)[C@@H](N)Cc2ccc(O)cc2)CSSC[C@@H](C(=O)N[C@@H](Cc2ccc(O)cc2)C(N)=O)NC(=O)[C@H](Cc2ccccc2)NC1=O [compound 28, reference compound] (HELM PEPTIDE1{Y.C.R.F.F.N.A.F.C.Y.[am]}$PEPTIDE1,PEPTIDE1,2:R3-9:R3$$$V2.0)
